According to paper PMC12119673, “Apoptotic cell death induced by copper (II), manganese (II) and silver (I) complexes containing bridging dicarboxylate and 1,10-phenanthroline ligands: one of the multi-modes of anticancer activity?” (Biometals, 2025):
Like-named read-outs stand apart in the source and are kept apart here.

Columns and labels:
Type in all cases: cell-based, human
MCF-7 cells [1] = test: Detection of reactive oxygen species with H2DCFDA; conditions: MCF-7, 0.78 μM to 50 μM, over a 6-h period, fold-change compared to the negative control
Procedure: The production of reactive oxygen species (ROS) was detected in MCF-7 and MCF12A cells using the cell-permeant dye 2',7'- dichlorodihydrofluorescein diacetate (H2DCFDA) (Thermo Fisher Scientific, Ireland) (Cat# D399). Cells were seeded at a density of 1 × 10^4 in 96 well plates and incubated for 24 h. Post-incubation, the media was removed, and cells were washed with PBS. A 10 μM DCFH-DA working solution was prepared using cell culture media, and the cells were incubated with 100 μl of the solution in the dark for 30 min. […] Fluorescent measurements were recorded at 15 min, 30 min, 1 h, and subsequently every hour up to 6 h using a Varioskan Lux™ multimode microplate reader (Thermo Fisher Scientific, Ireland) at an excitation wavelength of 495 nm and emission of 527 nm. The assay was repeated three independent times, using three replicates per plate.
The cells were treated with a concentration range from 0.78 μM to 50 μM, and the response was measured over a 6-h period. This facilitated the evaluation of whether there was a time and/or concentration dependent response from the cells. Hydrogen peroxide (H2O2) was used as a positive control. ROS production is presented as fold-change compared to the negative control.

MCF-7 cells [2] = test: In vitro cytotoxicity assessment, alamar blue assay, 24-h exposure
Procedure: The MCF-7 (human breast cancer) and MCF-12A (non-tumourigenic human breast) cell lines were obtained from the Technological University Dublin (TUDublin, City Campus) internal cell bank and commercially from the American Type Culture Collection (ATCC), respectively. Both cell lines were cultured using Dulbecco’s Modified Eagle Medium/Nutrient Mixture F-12 Ham (DMEM-F12) (Sigma, Ireland) (Cat# D6421) media. The MCF-7 media was supplemented with 10% Foetal Bovine Serum (Sigma, Ireland) (Cat# F7524) and 1% L-Glutamine (Sigma, Ireland) (Cat# 592020C). The MCF-12A media was supplemented with 5% Equine Serum (Sigma, Ireland) (Cat# H0146) 1.25% L-Glutamine (Sigma, Ireland) (Cat# 592020C), 20 ng/ml Human Epidermal Growth Factor (Thermo Fisher Scientific, Ireland) (Cat# PHG0313), 0.01 mg/ml insulin (Thermo Fisher Scientific, Ireland)(Cat# 12585014) and 500 ng/ml hydrocortisone (Sigma, Ireland) (Cat# H0888). The cells were grown in T75 culture flasks (Sarstedt, Germany) (Cat# 83.3911.002) and were incubated in a 5% CO2 atmosphere at 37 ℃. […] Following the incubation period, the media was removed, and cells were washed with sterile phosphate-buffered saline (PBS). […] Following the exposure period, the drug-containing media was removed, and cells were washed three times with PBS, ensuring complete removal of the test agents. A 5% working solution of Alamar Blue (Thermo Fisher Scientific, Ireland) (Cat# DAL1100) was prepared in dark conditions using unsupplemented cell culture media. 100 μl of the solution was added to each well, and the cells were incubated for 3 h. […] Each exposure was carried out in triplicate plates and was repeated three independent times. The software packages Microsoft^Ⓡ Excel (USA) and GraphPad Prism (Ver. 10.0.3) (GraphPad, USA) were used to analyse the alamar blue data. The treated sample values were first normalised to the negative control values. After normalisation, the mean and standard deviations (SD) were established using Microsoft^Ⓡ Excel. The statistical analysis package GraphPad was then used to determine the IC25 and IC50 concentrations.

[3] = system: caspase-3/7 in MCF-7 cells; test: Caspase 3/7 expression, FLICA (FAM-DEVD-FMK) flow cytometry; conditions: MCF-7, IC25 concentration, 24 h
Procedure: The expression of caspase-3/7 in MCF-7 and MCF-12A cells was determined using the VybrantTM FAM™ Caspase-3 and Caspase-7 Assay Kit (Cat# V35118) (Thermo Fisher Scientific, Ireland). Cells were seeded at a density of 1 × 10^5 in T25 flasks and incubated in routine conditions for 24 h. […] Post-exposure, the cells were harvested for staining.
(§1) Flow cytometry data analysis was performed with the CytExpert package (Ver. 2.4) (Beckman Coulter, USA) and Microsoft^Ⓡ Excel (USA). The mean MFI and percentage cells were calculated using these packages, followed by one-way ANOVA analysis with post hoc Bonferroni correction using GraphPad Prism (Ver. 9.4) (GraphPad, USA).
The expression of caspase-3/7 was analysed in MCF-7 and MCF-12A cells using fluorescent labelled inhibitors of caspase (FLICA): FAM-DEVD-FMK. […] Following the apoptosis induction study, it was of interest to determine whether the complexes were stimulating the executioner caspases triggering the irreversible proteolytic degradation of cells, culminating in cell death. […] These three complexes were selected based on their structural similarities, while incorporating alternative metal centres.

MCF-12A cells = test: Apoptosis induction, Annexin V / propidium iodide flow cytometry; conditions: IC25 concentration, 24 h
Procedure: (§2) MCF-7 and MCF-12A cells were seeded at a density of 1 × 10^5 in T25 flasks (Sarstedt, Germany) and incubated for 24 h at 37 °C with 5% CO2 allowing for attachment. Post -incubation, the media was removed, cells were washed with sterile PBS and then treated using IC25 concentrations established from the in vitro cytotoxicity screen. […] After the exposure period, the cells were enzymatically detached using trypsin, collected and centrifuged at 1200RPM for 10 min. The cells were then washed with PBS, re-centrifuged and resuspended in 1 ml of annexin binding buffer. Prior to staining, the concentration of each sample was adjusted to 1 × 10^6 cells/ml. The cells were stained with 1 μl of propidium iodide (PI) (Sigma, Ireland) (Cat #P4864) and 2 μl of Annexin V (Thermo Fisher Scientific, Ireland) (Cat #A13199). The cells were incubated at room temperature for 15 min prior to analysis. The staining process was completed in the dark to eliminate interference with photo-sensitive reagents. Immediately prior to analysis by flow cytometry, 400 μl of annexin binding buffer was added to each sample. Samples were analysed using a (CytoFLEX) (Beckman Coulter, USA). The AV/PI assay was completed three independent times.
as §1
(§3) The induction of apoptosis was analysed in MCF-7 and MCF-12A cells using the Annexin V and Propidium Iodide assay with flow cytometry. […] The assay allows for the differentiation of viable, apoptotic and necrotic cells based on the selective staining of Annexin V and PI. Annexin V binds to phosphatidylserines externalised to the outer leaflet of the plasma membrane during apoptosis; and PI is a membrane impermeable dye that binds to DNA of necrotic cells with compromised plasma membranes.

MCF-7 cells [4] = test: as above; conditions: MCF-7, IC25 concentration, 24 h
Procedure: as §2, §1, §3

[5] = MCF-7, 24-hour exposure, per one metal centre, mean ± S.D. (N=3)
[6] = MCF-7, 24-hour exposure, per one metal centre, mean ± S.D. (N=3), read-out: IC50 calculated per one metal centre
[7] = MCF-7, 24-h exposure, 25% reduction in metabolic activity, mean ± SD (N = 3)

Row | Compound | ROS production (MCF-7 cells [1]) | Cytotoxic activity IC25 ± SD (MCF-7 cells [2]) [µM] | IC50 (MCF-7 cells [2]) [µM] | IC25 calculated per one metal centre (MCF-7 cells [2]; [5]) | IC50 (MCF-7 cells [2]; [6]) [µM] | Expression of caspase-3/7 (% cells) [3] | Cytotoxic activity IC25 ± SD (MCF-7 cells [2]; [7]) [µM] | Apoptotic population (% cells) (MCF-12A cells) | Necrotic population (% cells) (MCF-12A cells) | Necrotic population (% cells) (MCF-7 cells [4]) | IC50 (MCF-7 cells [2]; Homo sapiens, MCF7, MCF-7, 24-h exposure, 50% reduction in metabolic activity, mean ± SD (N = 3), read-out: Cytotoxic activity IC50 ± SD) [µM] | IC50 (MCF-7 cells [2]; MCF-7, 24-h exposure, 50% reduction in metabolic activity, mean ± SD (N = 3), read-out: Cytotoxic activity IC50 ± SD) [µM]
1 | O=C([O-])CCCCCCC(=O)[O-].[Cu+2].[Cu+2].[O-][Cl+3]([O-])([O-])[O-].[O-][Cl+3]([O-])([O-])[O-].c1cnc2c(c1)ccc1cccnc12.c1cnc2c(c1)ccc1cccnc12.c1cnc2c(c1)ccc1cccnc12.c1cnc2c(c1)ccc1cccnc12 [Complex 1, [Cu2(oda)(phen)4](ClO4)2] | moderate production of ROS | 1.77 ± 0.14 | 4.76 ± 0.3 | 3.54 ± 0.28  µM | 9.52 ± 0.6 | – | – | – | – | – | – | –
2 | O=C([O-])CCCCCCC(=O)[O-].[Cu+2].c1cnc2c(c1)ccc1cccnc12.c1cnc2c(c1)ccc1cccnc12 [Complex 2, [Cu(oda)(phen)2]] | moderate production of ROS | – | – | 2.04 ± 0.24  µM | 6.72 ± 0.6 | highest expression of caspase-3/7 | 2.04 ± 0.24 | – | – | – | – | –
3 | O=C([O-])CCCCCCC(=O)[O-].[Ag+].[Ag+].c1cnc2c(c1)ccc1cccnc12.c1cnc2c(c1)ccc1cccnc12.c1cnc2c(c1)ccc1cccnc12 [Complex 4, [Ag2(oda)(phen)3]] | lowest production | – | – | 11.04 ± 1.78  µM | – | – | 5.52 ± 0.89 | significant decrease in apoptotic cells | virtually no necrotic population | – | – | –
4 | O=C([O-])CCCCCCCCCC(=O)[O-].[Ag+].[Ag+].c1cnc2c(c1)ccc1cccnc12.c1cnc2c(c1)ccc1cccnc12.c1cnc2c(c1)ccc1cccnc12 [Complex 5, [Ag2(udda)(phen)3]] | lowest production | – | – | 11.68 ± 0.24  µM | – | – | 5.84 ± 0.12 | same level of apoptosis | no necrotic population was observed | significant population | – | –
5 | c1cnc2c(c1)ccc1cccnc12 [Phen, 1,10-Phenanthroline] | – | – | – | 9.02 ± 4.26  µM | – | – | 9.02 ± 4.26 | – | – | – | 33.2 ± 9.36 | –
6 | {[Mn2(oda)3(phen)4]^2−[Mn2(oda)(phen)4 (H2O)2]^2+} [Complex 7] | potent inducer of ROS, eliciting the highest production in MCF-7 cells | – | – | 2.80 ± 0.44  µM | 11.2 ± 0.52 | lowest expression levels of the three complexes | 0.70 ± 0.11 | significantly diminished apoptotic population | no necrosis observed | necrotic population also observed | – | 2.79 ± 0.13
